The source made the active and inactive calls. The calls are words filed in the database; no cut-off is given here.
Key:
[1] = target: Mu-type opioid receptor (Homo sapiens) (UniProt P35372); assay: Agonist activity at human mu-opioid receptor expressed in CHO cell membranes assessed as induction of [35S]GTPgammaS binding at 10 uM after 60 mins by scintillation counting method; format: functional
[2] = target: Delta-type opioid receptor (Homo sapiens) (UniProt P41143); assay: Agonist activity at human delta-opioid receptor expressed in CHO cell membranes assessed as induction of [35S]GTPgammaS binding at 10 uM after 60 mins by scintillation counting method; format: functional
[3] = target: Delta-type opioid receptor (Homo sapiens) (UniProt P41143)
Description: Antagonist activity at human delta-opioid receptor expressed in CHO cell membranes assessed as inhibition of DPDPE agonist-induced [35S]GTPgammaS binding after 60 mins by scintillation counting method

[4] = target: Kappa-type opioid receptor (Homo sapiens) (UniProt P41145); assay: Agonist activity at human kappa-opioid receptor expressed in CHO cell membranes assessed as induction of [35S]GTPgammaS binding at 10 uM after 60 mins by scintillation counting method; format: functional
Sequence of Kappa-type opioid receptor (Homo sapiens) (P41145 whole entry): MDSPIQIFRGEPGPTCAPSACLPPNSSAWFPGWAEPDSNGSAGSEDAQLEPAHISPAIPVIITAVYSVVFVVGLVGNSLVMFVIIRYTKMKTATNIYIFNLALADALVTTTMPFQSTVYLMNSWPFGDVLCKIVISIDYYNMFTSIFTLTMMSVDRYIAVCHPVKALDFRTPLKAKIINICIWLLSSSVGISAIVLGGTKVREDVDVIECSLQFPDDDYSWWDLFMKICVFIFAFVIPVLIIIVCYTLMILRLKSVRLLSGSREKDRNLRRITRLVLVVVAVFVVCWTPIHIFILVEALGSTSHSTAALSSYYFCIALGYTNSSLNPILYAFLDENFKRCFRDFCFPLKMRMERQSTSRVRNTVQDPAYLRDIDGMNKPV

Sequence of Delta-type opioid receptor (Homo sapiens) (P41143 whole entry): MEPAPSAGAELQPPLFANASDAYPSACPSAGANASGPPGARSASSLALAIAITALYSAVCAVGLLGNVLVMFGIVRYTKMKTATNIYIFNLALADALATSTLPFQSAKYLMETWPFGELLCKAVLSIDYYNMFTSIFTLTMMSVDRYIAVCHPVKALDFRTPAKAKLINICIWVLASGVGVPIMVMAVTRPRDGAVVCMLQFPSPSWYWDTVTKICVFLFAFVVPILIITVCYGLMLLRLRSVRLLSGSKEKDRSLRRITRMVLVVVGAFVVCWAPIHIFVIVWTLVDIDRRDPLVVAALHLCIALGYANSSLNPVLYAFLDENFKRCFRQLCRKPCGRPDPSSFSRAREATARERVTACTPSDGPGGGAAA
Sequence of Mu-type opioid receptor (Homo sapiens) (P35372 whole entry): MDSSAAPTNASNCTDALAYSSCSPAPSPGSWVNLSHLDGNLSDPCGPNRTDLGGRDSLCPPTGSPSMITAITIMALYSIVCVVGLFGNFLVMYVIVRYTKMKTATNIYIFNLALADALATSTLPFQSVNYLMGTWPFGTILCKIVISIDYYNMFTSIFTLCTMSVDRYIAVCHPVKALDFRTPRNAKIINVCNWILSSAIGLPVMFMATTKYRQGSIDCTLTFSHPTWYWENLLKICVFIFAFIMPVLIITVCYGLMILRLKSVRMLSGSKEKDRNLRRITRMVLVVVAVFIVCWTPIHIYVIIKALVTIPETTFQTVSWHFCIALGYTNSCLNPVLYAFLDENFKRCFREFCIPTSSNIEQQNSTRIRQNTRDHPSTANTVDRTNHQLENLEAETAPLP

For `CC(C)[C@@H](CC1CCCCC1)NC(=O)[C@H]1Cc2ccc(O)cc2CN1`, the Activity [1] was “inactive”, the Activity [2] was “inactive” and the Ke [3] was 640 nM. The Activity [4] was “inactive”.

In the case of `CC(C)[C@@H](CN1CCCCC1)NC(=O)[C@H]1Cc2ccc(O)cc2CN1`, the Activity [1] is reported as “inactive”, the Activity [2] is reported as “inactive” and the Activity [4] is reported as “inactive”.
